This is an account of results in patent US20260357222A1, “GROWTH-BASED SELECTION PLATFORM FOR NONCANONICAL COFACTOR OXIDIZING ENZYMES” (The Regents of the University of California, priority 2022, published 2026).

For data set [1], the target named is T1, Lactobacillus pentosus NADH oxidase (Lp Nox), wild type, SEQ ID NO:1 (Lactiplantibacillus pentosus, UniProt A0A0U3FIG2).
T1 sequence (A0A0U3FIG2 1-450): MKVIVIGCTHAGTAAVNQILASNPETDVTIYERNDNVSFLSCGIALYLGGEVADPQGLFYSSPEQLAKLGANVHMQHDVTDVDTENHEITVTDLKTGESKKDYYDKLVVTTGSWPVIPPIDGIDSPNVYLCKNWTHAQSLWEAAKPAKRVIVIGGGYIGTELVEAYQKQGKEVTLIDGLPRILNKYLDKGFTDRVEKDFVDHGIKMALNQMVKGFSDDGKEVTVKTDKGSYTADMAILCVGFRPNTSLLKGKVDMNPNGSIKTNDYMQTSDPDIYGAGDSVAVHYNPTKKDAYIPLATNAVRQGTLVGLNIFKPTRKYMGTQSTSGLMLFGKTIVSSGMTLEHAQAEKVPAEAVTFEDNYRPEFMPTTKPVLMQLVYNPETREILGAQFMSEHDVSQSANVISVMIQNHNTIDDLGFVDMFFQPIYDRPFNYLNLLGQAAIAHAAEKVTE
The settings on record: role: cofactor; oxidation of MNAH and BNAH by wild-type Lp Nox; cited from earlier work.

The target of data set [2] is T2, Lactobacillus pentosus NADH oxidase (Lp Nox) variant LP-3-EP (I158S-D177W-G178E-V240L-P362H-V395L), SEQ ID NO:7 (Lactiplantibacillus pentosus, UniProt A0A0U3FIG2, D177W/G178E/I158S/P362H/V240L/V395L).
T2 construct: variant LP-3-EP
T2 sequence (A0A0U3FIG2 1-450 I158S/D177W/G178E/V240L/P362H/V395L): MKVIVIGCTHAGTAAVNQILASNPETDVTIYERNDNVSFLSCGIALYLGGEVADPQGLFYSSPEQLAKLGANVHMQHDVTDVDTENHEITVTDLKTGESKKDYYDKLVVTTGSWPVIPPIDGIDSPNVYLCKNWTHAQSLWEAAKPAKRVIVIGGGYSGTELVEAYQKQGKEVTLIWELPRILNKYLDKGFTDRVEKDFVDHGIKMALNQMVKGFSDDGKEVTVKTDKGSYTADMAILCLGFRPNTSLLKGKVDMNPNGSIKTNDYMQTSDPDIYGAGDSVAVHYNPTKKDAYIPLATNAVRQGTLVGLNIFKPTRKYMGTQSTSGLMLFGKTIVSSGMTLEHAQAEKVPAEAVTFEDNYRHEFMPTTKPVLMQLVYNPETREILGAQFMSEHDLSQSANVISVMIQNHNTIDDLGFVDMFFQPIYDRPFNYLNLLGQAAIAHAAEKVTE
The data set is described as follows: Lp Nox enzymatic kinetics, cofactor oxidation at 340 nm, variant LP-3-EP. The format is biochemical. The protocol:
(§1) Protein Expression and Purification. Lp Nox wild type or variants (see Table 1) are expressed with E. coli BL21 (DE3) with plasmids inoculated in 2× YT media with 200 mg L^−1 ampicillin. Expression was carried out by inoculation of 20 mL 2× YT media supplied with antibiotics and an overnight culture incubated at 30 °C, 250 RPM with an OD600nm of 0.072. Cells were grown at 37 °C in 50 mL conical tubes, and the cultures were induced with 0.5 mM IPTG at an OD600nm of 0.6-1.0. The 20 mL culture was then incubated at 27 °C and 250 RPM for 24 h. After 24 h, cells were harvested for protein extraction (centrifugation at 4 °C, 3000 RPM, 20 min). Cell pellets were resuspended in Zymo His-Binding buffer (Zymo Research Corporation) supplied with 0.15 mM FAD, 1 μL/mL DNase (Sigma Aldrich) and 1 mM InSolution [COMPOUND LEFT OUT] (Sigma Aldrich). The resuspended cell mixture was added to 0.5 mL of 0.1 mm glass beads (Biospec) and homogenized using a benchtop homogenizer (MP Biomedicals). Cell debris was separated from the crude extract by centrifugation at 4 °C and 15,000 RPM for 5 min. Protein purification was performed using His-Spin Protein Miniprep (Zymo Research Corporation) according to the manufacturer's instructions. The concentrations of purified protein were quantified by a Bradford assay using BSA as a standard. Purified protein was stored in aliquots with 20% (v/v) glycerol at −80 °C.
(§2) NMNH generation. NMNH generation was performed in 20 mL reaction volumes in a 50 ml conical tube containing 200 mM Tris-Cl at pH 8.0, 100 mM sodium chloride, 3 mM potassium chloride, 200 mM glucose, and 20 m MNMN^+. The reaction was initiating by spiking 500 ng of purified Bacillus subtilis glucose dehydrogenase I195R8. The reaction was incubated at 30 °C until reaction progression stopped, approximately 6 h. Reaction progression was monitored by observing the increase in light absorption at 340 nm, corresponding to the reduction of NMN^+ to NMNH. Then, the solution was filtered through a 15 kD cutoff filter to remove the protein. To purify the NMNH, the flowthrough was mixed with HPLC-grade acetonitrile to a final concentration of 70% acetonitrile, and the solution was passed through a Phenomenex Strata NH2 (2 g/12 mL, 55 μm, 70 Å) solid phase extraction column. The column was washed twice with 4 mL of 70:30 acetonitrile:water, then twice with 4 mL of 50:50 acetonitrile:water, twice with 4 mL of 30:70 acetonitrile:water, twice with 4 mL of nanopurified water, and finally twice with 4 mL of methanol. To elute the NMNH from the column, 2 mL of a solution containing 50:50 ammonium hydroxide:methanol was added to the column and incubated for 3 minutes before eluting. The elution step was repeated until no NMNH remained in the flow through, as monitored by light absorption at 340 nm. The elution fractions containing NMNH were pooled and aliquoted in 1 mL volumes into clean tubes. The solutions were dried over air and stored at −80 °C until use.
(§3) Lp Nox Enzymatic Assays and Kinetic study with NMNH, NAD(P) H. The Lp Nox activity (see FIG. 4A) was determined by the change in light absorption at 340 nm at 37 °C in 50 mM Tris-Cl buffer pH 7.0. The reactions were started by adding the purified protein to the prewarmed 37 °C assay mixture containing 0.3 mM of respective cofactor. The absorbance change at 340 nm for NAD(P) H and NMNH was detected using a SpectraMax M3 microplate reader. For kinetics parameter determination (see Table 2), cofactor concentrations were varied from 0 to 2 mM and the results were fitted to the standard Michaelis-Menten equation or Lineweaver-Burk equation to acquire catalytic efficiencies (kcat/Km) when the cofactor concentration tested could not saturate the enzyme activity or during the presence of substrate inhibition. Cofactor concentration over 2 mM could not be measured accurately on M3 spectrometer due to detector absorbance saturation at 340 nm.

Data set [3] concerns the target T3, Lactobacillus pentosus NADH oxidase (Lp Nox) variant LP-7 (I158S-D177W-V240L), SEQ ID NO:3 (Lactiplantibacillus pentosus, UniProt A0A0U3FIG2, D177W/I158S/V240L).
T3 construct: variant LP-7
T3 sequence (A0A0U3FIG2 1-450 I158S/D177W/V240L): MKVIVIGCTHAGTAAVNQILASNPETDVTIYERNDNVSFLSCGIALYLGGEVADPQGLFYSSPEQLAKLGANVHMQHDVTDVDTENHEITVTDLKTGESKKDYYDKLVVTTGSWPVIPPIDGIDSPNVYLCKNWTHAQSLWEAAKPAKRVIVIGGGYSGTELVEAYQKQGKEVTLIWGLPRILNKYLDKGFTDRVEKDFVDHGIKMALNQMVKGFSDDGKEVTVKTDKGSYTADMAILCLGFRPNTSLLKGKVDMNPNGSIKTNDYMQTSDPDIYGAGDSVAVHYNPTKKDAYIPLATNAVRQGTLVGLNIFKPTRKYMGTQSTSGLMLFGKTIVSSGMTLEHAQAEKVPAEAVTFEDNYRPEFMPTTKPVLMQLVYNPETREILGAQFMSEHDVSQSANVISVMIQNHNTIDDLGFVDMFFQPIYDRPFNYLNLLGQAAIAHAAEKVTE
In words: Lp Nox enzymatic kinetics, cofactor oxidation at 340 nm, variant LP-7. The settings on record: role: cofactor; apparent; 50 mM Tris-HCl pH 7.0, 37 °C; cofactor 0 to 2 mM. The class given is biochemical. The protocol:
as §1, §2, §3

Data set [4] deals with T4, Lactobacillus pentosus NADH oxidase (Lp Nox) variant LP-3 (I158S-D177W-G178E-V240L), SEQ ID NO:6 (Lactiplantibacillus pentosus, UniProt A0A0U3FIG2, D177W/G178E/I158S/V240L).
T4 construct: variant LP-3
T4 sequence (A0A0U3FIG2 1-450 I158S/D177W/G178E/V240L): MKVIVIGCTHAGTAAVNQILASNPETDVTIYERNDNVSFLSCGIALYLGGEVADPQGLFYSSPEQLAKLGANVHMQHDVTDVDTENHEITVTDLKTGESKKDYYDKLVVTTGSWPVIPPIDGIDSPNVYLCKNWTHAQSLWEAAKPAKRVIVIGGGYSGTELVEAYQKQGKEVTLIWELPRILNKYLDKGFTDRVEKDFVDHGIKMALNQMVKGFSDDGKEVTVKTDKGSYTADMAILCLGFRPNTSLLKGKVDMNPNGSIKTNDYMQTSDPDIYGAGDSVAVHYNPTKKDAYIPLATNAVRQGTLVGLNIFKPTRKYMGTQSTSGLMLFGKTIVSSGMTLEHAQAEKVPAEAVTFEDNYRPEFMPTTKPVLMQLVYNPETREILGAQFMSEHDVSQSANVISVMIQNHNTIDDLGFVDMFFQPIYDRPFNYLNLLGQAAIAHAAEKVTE
The data set is described as follows: Lp Nox enzymatic kinetics, cofactor oxidation at 340 nm, variant LP-3. The settings on record: role: cofactor; apparent; 50 mM Tris-HCl pH 7.0, 37 °C; cofactor 0 to 2 mM. The class given is biochemical. The protocol:
as §1, §2, §3

Substrate in data set [5]: NC(=O)C1=CN([C@@H]2O[C@H](COP(=O)(O)OP(=O)(O)OC[C@H]3O[C@@H](n4cnc5c(N)ncnc54)[C@H](O)[C@@H]3O)[C@@H](O)[C@H]2O)C=CC1
In words: Lp Nox enzymatic kinetics, cofactor oxidation at 340 nm, wild type. The format is biochemical, Lactobacillus pentosus. As to conditions: other: role: cofactor, apparent, 50 mM Tris-HCl pH 7.0, 37 °C, cofactor 0 to 2 mM. The protocol: as §1, with “Purified protein was stored in aliquots with 20% (v/v) glycerol at −80 °C.” left out
NMNH generation. […] Reaction progression was monitored by observing the increase in light absorption at 340 nm, corresponding to the reduction of NMN^+ to NMNH. […] The elution step was repeated until no NMNH remained in the flow through, as monitored by light absorption at 340 nm. […]
Lp Nox Enzymatic Assays and Kinetic study with NMNH, NAD(P) H. The Lp Nox activity (see FIG. 4A) was determined by the change in light absorption at 340 nm at 37 °C in 50 mM Tris-Cl buffer pH 7.0. […] The absorbance change at 340 nm for NAD(P) H and NMNH was detected using a SpectraMax M3 microplate reader. […] Cofactor concentration over 2 mM could not be measured accurately on M3 spectrometer due to detector absorbance saturation at 340 nm.

On to `CN1C=CCC(C(N)=O)=C1` [MNAH, N-methyl-1,4-dihydronicotinamide], for which, in data set [1], the “catalytic efficiencies (in words)” value is “low catalytic efficiencies”.
Take `NC(=O)C1=CN([C@@H]2O[C@H](COP(=O)(O)OP(=O)(O)OC[C@H]3O[C@@H](n4cnc5c(N)ncnc54)[C@H](O)[C@@H]3O)[C@@H](O)[C@H]2O)C=CC1` [NADH, nicotinamide adenine dinucleotide]: the kcat/Km in data set [2] (role: cofactor, 50 mM Tris-HCl pH 7.0, 37 °C, estimated based on kinetics under lower cofactor concentrations before inhibition was observed) was 49 ± 2.0^c mM^−1s^−1. In data set [2] (role: inhibitor (cofactor inhibition), above 1 mM NADH or NADPH, fits poorly with the substrate inhibition rate equation), the “inhibition of LP 3-EP activity by the cofactor” value is “strongly inhibited”. Besides, in data set [3], the Michaelis-Menten constant (Km) stood at 1700 ± 200 µM, the kcat amounted to 47 ± 4 s⁻¹ and the kcat/Km was determined as 28000 ± 1000 M⁻¹ s⁻¹. Besides, in data set [4], the Km was 1900 ± 40 µM, the turnover number (kcat) stood at 31 ± 1 s⁻¹ and the catalytic efficiency (kcat/Km) stood at 17000 ± 1000 M⁻¹ s⁻¹.
Take `NC(=O)C1=CN(Cc2ccccc2)C=CC1` [BNAH, 1-Benzyl-1,4-dihydronicotinamide]: the “catalytic efficiencies (in words)” value in data set [1] is recorded as “low catalytic efficiencies”.

B1: Lactobacillus pentosus NADH oxidase (Lp Nox), wild type, SEQ ID NO:1 (Lactiplantibacillus pentosus) (protein)
chain: MKVIVIGCTHAGTAAVNQILASNPETDVTIYERNDNVSFLSCGIALYLGGEVADPQGLFYSSPEQLAKLGANVHMQHDVTDVDTENHEITVTDLKTGESKKDYYDKLVVTTGSWPVIPPIDGIDSPNVYLCKNWTHAQSLWEAAKPAKRVIVIGGGYIGTELVEAYQKQGKEVTLIDGLPRILNKYLDKGFTDRVEKDFVDHGIKMALNQMVKGFSDDGKEVTVKTDKGSYTADMAILCVGFRPNTSLLKGKVDMNPNGSIKTNDYMQTSDPDIYGAGDSVAVHYNPTKKDAYIPLATNAVRQGTLVGLNIFKPTRKYMGTQSTSGLMLFGKTIVSSGMTLEHAQAEKVPAEAVTFEDNYRPEFMPTTKPVLMQLVYNPETREILGAQFMSEHDVSQSANVISVMIQNHNTIDDLGFVDMFFQPIYDRPFNYLNLLGQAAIAHAAEKVTE
Take B1: in data set [5], the Michaelis constant (Km) was determined as 24 ± 5 µM, the kcat was 21 ± 1 s⁻¹ and the specificity constant (kcat/Km) is 844000 ± 4000 M⁻¹ s⁻¹.

The kcat/Km is the turnover number divided by the Michaelis constant. As a reminder, the Km is the concentration of substrate that gives half-maximal velocity. As a reminder, the kcat is the number of substrate molecules converted per active site and unit of time at saturation.
